Experiments:
HCC36 cells = experiment: Trypan blue exclusion assay of C1GALT1-enhanced cell viability with MET inhibitor; assay type: cell-based, human; settings: HCC36, C1GALT1 overexpression, 72 hours
Description: (§1) Cells (4×10^4) are seeded in each well of 6-well plates with DMEM containing 10% FBS. Viable cells are analyzed by Trypan blue exclusion assay at 0, 24, 48, and 72 hours. Cell proliferation is evaluated by immunostaining with anti-Ki67 antibody (1:1000; Vector Laboratories). For cell-cycle analysis, 1×10^6 cells are stained with propidium iodide (Sigma) for 30 minutes. The percentages of cells in G1, S, and G2M phases are analyzed by flow cytometry (Becton Dickinson). […] Data are represented as means±SD from three independent experiments (** refers to P<0.01).

Sk-Hep1 cells = experiment: as above; assay type: cell-based, human; settings: Sk-Hep1, C1GALT1 overexpression, 72 hours
Description: as §1

C1GALT1 [1] = experiment: FITC-VVA FACS analysis of Tn antigen accumulation in T47D breast cancer cells; assay type: cell-based, human; settings: mock and C1GALT1 overexpressed T47D transfectants, itraconazole 10 ug/ml
Description: (§2) FIGS. 86A-86D are graphs illustrating that itraconazole impairs C1GALT1 function leading to the accumulation of Tn antigen expression in breast cancer cells in accordance with an embodiment of the present invention. […] After itraconazole treatment, cells are detached with 5 mM EDTA. Afterwards, FITC conjugated Vicia villosa agglutinin (VVA), lectin specifically recognizing Tn antigen, is applied for analysis with a fluoresencce-activated cell sorting (FACS) system. A right-shift of the VVA peak indicates the accumulation of Tn antigens. […] After itraconazole treatment, cells are detached with 5 mM EDTA and treated with or without 10 mU/ml neuraminidase to unmask the effects of sialylated O-glycans. After treatment with neuraminidase, FITC conjugated Vicia villosa agglutinin (VVA), lectin specifically recognizing Tn antigen, is applied for analysis with a fluoresencce-activated cell sorting (FACS) system. […] To confirm whether the peak shift is a result of impaired C1GALT1 function, mock and C1GALT1 overexpressed T47D cells are analyzed. […] Overexpression of C1GALT1 results in a left-shift of the VVA peak in itraconazole-untreated transfectants, indicating intact C1GALT1 function in depleting Tn antigens as substrates for T antigen synthesis.

HCC36 cell lines = experiment: MTT cell growth assay, liver cancer cells; assay type: cell-based, human; set-up: dose or concentration left out as unconfirmed; settings: HCC36, itraconazole for 5 days, compared with control (DMSO)
Description: (§3) FIG. 88C is a schematic diagram illustrating that itraconazole suppresses liver cancer cell growth in accordance with an embodiment of the present invention. To determine whether impairing C1GALT1 function affects liver cancer cell malignant phenotypes, the effects of itraconazole on liver cancer cell growth are analyzed by MTT cell growth assay in HCC36 cell lines. Cells (3×10^3) are seeded into 96-well microtitre plates and treated with DMSO (control) or itraconazole 10 µg/ml for 5 days at 37° C. under 5% CO2 atmosphere. Results from two independent experiments are presented as mean±SD and analyzed with student's t-test, *p<0.05 and **p<0.01.

T47D cell lines = experiment: MTT cell growth assay, breast cancer cells (itraconazole); assay type: cell-based, human; set-up: dose or concentration left out as unconfirmed; settings: itraconazole for 5 days, compared with control (DMSO)
Description: as §3, with “88B” for “88C”, “breast” for “liver”, “T47D” for “HCC36”

CL1-5 cell lines = experiment: MTT cell growth assay, lung cancer cells; assay type: cell-based, human; set-up: dose or concentration left out as unconfirmed; settings: CL1-5, itraconazole for 5 days, compared with control (DMSO)
Description: as §3, with “88A” for “88C”, “lung” for “liver”, “CL1-5” for “HCC36”

C1GALT1 [2] = target: T1, C1GALT1 (Homo sapiens, UniProt Q9NS00); experiment: FITC-VVA FACS analysis of Tn antigen accumulation in HCC36 liver cancer cells; assay type: cell-based; set-up: endogenous in cells; settings: for VVA peak shift (accumulation of Tn antigens): itraconazole 10 ug/ml
Text: According to another embodiment of the present invention, in the experiment in vitro, itraconazole, a small molecular drug, is used as the C1GALT1 inhibition substance. Itraconazole is an FDA approved drug that is clinically employed as an antimicrobial for the treatment of fungal, mycosis, and candida infections. The inventors of the present invention discovered that the structure of itraconazole is suitable for binding to the catalytic domain of C1GALT1 and inhibiting C1GALT1. Cells are cultured in DMEM with 10% FBS and treated with itraconazole 10 ug/ml for 3 days at 37° C. under 5% CO2.
as §2, with “FIGS. 87A-87D are graphs” for “FIGS. 86A-86D are graphs”, “leading to accumulation of” for “leading to the accumulation of”, “expression in […] cancer cells” for “expression in breast cancer cells”, “right-shift of VVA peak” for “right-shift of the VVA peak”, “C1GALT1 overexpressed HCC36 cells are” for “C1GALT1 overexpressed T47D cells are”, “results in left-shift of” for “results in a left-shift of”
Target sequence in this assay (Q9NS00 whole entry, the tested form may be a part): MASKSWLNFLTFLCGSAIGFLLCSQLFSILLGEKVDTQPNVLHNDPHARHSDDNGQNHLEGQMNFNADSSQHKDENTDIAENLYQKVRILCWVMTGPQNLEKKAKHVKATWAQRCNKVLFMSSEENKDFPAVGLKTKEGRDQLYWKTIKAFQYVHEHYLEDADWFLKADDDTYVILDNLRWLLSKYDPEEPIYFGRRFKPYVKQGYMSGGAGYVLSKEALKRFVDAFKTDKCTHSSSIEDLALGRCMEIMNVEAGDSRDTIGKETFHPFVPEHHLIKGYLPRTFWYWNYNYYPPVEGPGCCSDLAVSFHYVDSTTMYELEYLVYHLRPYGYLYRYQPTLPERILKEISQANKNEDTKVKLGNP

C1GALT1 [3] = target: T1, C1GALT1; experiment: FITC-VVA FACS analysis of Tn antigen accumulation in CL1-5 lung cancer cells; assay type: cell-based; set-up: endogenous in cells; settings: for VVA peak shift (accumulation of Tn antigens): itraconazole 10 ug/ml
Description: as §2, with “85A-85D” for “86A-86D”, “lung” for “breast”, “indicates” for “indicates the”, “CL1-5” for “T47D”, “itraconazole untreated” for “itraconazole-untreated”
Target sequence in this assay (Q9NS00 whole entry, the tested form may be a part): as above

C1GALT1 [4] = target: T1, C1GALT1; experiment: FITC-VVA FACS analysis of Tn antigen accumulation in T47D breast cancer cells; assay type: cell-based; set-up: endogenous in cells; host or cells: T47D breast cancer cells
Description: as §2

Structure (SMILES) | C1GALT1-enhanced cell viability (HCC36 cells) | C1GALT1-enhanced cell viability (Sk-Hep1 cells) | VVA peak shift (accumulation of Tn antigens) (C1GALT1 [1]) | liver cancer cell growth (HCC36 cell lines) | breast cancer cell growth (T47D cell lines) | lung cancer cell growth (CL1-5 cell lines) | VVA peak shift (accumulation of Tn antigen substrates) (C1GALT1 [2]; C1GALT1 overexpressed HCC36 cells, sialylated O-glycans unmasked by neuraminidase) | VVA peak shift (accumulation of Tn antigens) (C1GALT1 [2]; HCC36 parental cells, regardless of sialylated O-glycans) | VVA peak shift (accumulation of Tn antigens) (C1GALT1 [2]; mock and C1GALT1 overexpressed HCC36 transfectants) | VVA peak shift (accumulation of Tn antigen substrates) (C1GALT1 [3]; C1GALT1 overexpressed CL1-5 cells, sialylated O-glycans unmasked by neuraminidase) | VVA peak shift (accumulation of Tn antigens) (C1GALT1 [3]; CL1-5 parental cells, regardless of sialylated O-glycans) | VVA peak shift (accumulation of Tn antigens) (C1GALT1 [3]; mock and C1GALT1 overexpressed CL1-5 transfectants) | VVA peak shift (accumulation of Tn antigen substrates) (C1GALT1 [4]; C1GALT1 overexpressed T47D cells, sialylated O-glycans unmasked by neuraminidase) | VVA peak shift (accumulation of Tn antigens) (C1GALT1 [4]; T47D parental cells, itraconazole 10 ug/ml, regardless of sialylated O-glycans)
Cc1[nH]c(/C=C2\C(=O)Nc3ccc(S(=O)(=O)Cc4c(Cl)cccc4Cl)cc32)c(C)c1C(=O)N1CCC[C@@H]1CN1CCCC1 [PHA665752] | significantly inhibited | significantly inhibited | – | – | – | – | – | – | – | – | – | – | – | –
CCC(C)n1ncn(-c2ccc(N3CCN(c4ccc(OCC5COC(Cn6cncn6)(c6ccc(Cl)cc6Cl)O5)cc4)CC3)cc2)c1=O (centres unmarked) [itraconazole] | – | – | major right-shift of the VVA peaks | significantly suppressed | significantly suppressed | significantly suppressed | major peak shifts to the right | right shift of the VVA peak | major right-shift of the VVA peaks | major peak shifts to the right | right shift of the VVA peak | major right-shift of the VVA peaks | major peak shifts to the right | right shift of the VVA peak

From US20150094354A1, “METHOD FOR TREATING CELL PROLIFERATIVE DISORDER BY INHIBITING C1GALT1 EXPRESSION” (National Taiwan University, priority 2013, published 2015)
